Experimental data as given in patent publication US20070259927A1, “Remedy for Diabetes” (Takeda Pharmaceutical Company Limited, priority 2004, published 2007).

Experiments:
Type in all cases: in vivo
[1] = system: db/db mouse; assay: Experimental Example 1: db/db mouse, powder diet for 3 weeks, pioglitazone and compound A alone or combined; details: db/db mice, in powder diet 3 weeks, mean (n=8)±standard deviation; for plasma insulin level / plasma glucose level / plasma insulin/plasma glucose value: day 21; for plasma insulin level / pancreatic insulin content: pioglitazone 0.01(w/w)%, compound A 0.03(w/w)% (½ fumarate); for plasma glucose level: pioglitazone hydrochloride 0.01(w/w)% as pioglitazone, ½ fumarate of compound A 0.03(w/w)% as compound A; for plasma insulin/plasma glucose value: plasma insulin level divided by plasma glucose level; for pancreatic insulin content: pancreas removed day 23
Source text: First of all, db/db mice (32 mice) were divided into 4 groups of A to D (8 mice in each group), and a powder diet (trade name: CE-2, Clea Japan, Inc., hereinafter the same) was given to group A (control group), a powder diet containing pioglitazone hydrochloride (0.01(w/w) % as pioglitazone) was given to group B, a powder diet containing ½ fumarate of compound A (0.03(w/w) % as compound A) was given to group C, and a powder diet containing pioglitazone hydrochloride (0.01(w/w) % as pioglitazone) and ½ fumarate of compound A (0.03(w/w) % as compound A) was given to group D, for 3 consecutive weeks.
In addition, a powder diet was given to db/+m mice for 3 consecutive weeks, and the mice were used as group E (normal group).
(§1) In the above-mentioned groups A to E, blood samples were collected from mice on day 21 from the start of the powder diet administration, and plasma glucose level and plasma insulin level were measured. On day 23 from the start of the powder diet administration, the pancreas was removed from the mice, and the pancreatic insulin content was measured.
The plasma glucose level was measured by an enzyme method using L type Wako Glu2 (trade name, Wako Pure Chemical Industries, Ltd.).
In addition, the plasma insulin level was measured by a radioimmunoassay (trade name, ShionoRIA insulin), and the plasma insulin level was divided by the plasma glucose level to determine the plasma insulin/plasma glucose value.
The pancreatic insulin content was measured as follows.
First, the mouse pancreas was disrupted in its 10 times weight of 75% ethanol (containing 0.15 M hydrochloric acid). The obtained disrupted solution was left standing overnight under the shading conditions at 4·^□C, and centrifuged at 15000 rpm for 5 min. The obtained supernatant was appropriately diluted with PBS(−) (phosphate-buffered saline) containing 0.1% BSA (bovine serum albumin). The insulin content of the diluted solution was measured in the same manner as in the above-mentioned plasma insulin level, and the insulin content per pancreatic tissue weight was calculated.
The results are shown in [Table 1] to [Table 4]. The values in the tables show mean (n=8)±standard deviation.

[2] = system: db/db mouse; assay: Experimental Example 2: db/db mouse, powder diet for 5 weeks, pioglitazone and vildagliptin alone or combined; details: db/db mice, in powder diet 5 weeks, mean (n=8)±standard deviation; for pancreatic insulin content: pancreas removed day 37
Source text: First of all, db/db mice (32 mice) were divided into 4 groups of F to I (8 mice in each group), and
a powder diet (trade name: CE-2, Clea Japan, Inc., hereinafter the same) was given to group F (control group), a powder diet containing pioglitazone hydrochloride (0.01 (w/w) % as pioglitazone) was given to group G,
a powder diet containing pioglitazone hydrochloride
In addition, a powder diet was given to db/+m mice for 5 consecutive weeks, and the mice were used as group J (normal group).
as §1, with “F” for “A”, “I,” for “E,”, “35” for “21”, “37” for “23”
The plasma glucose level, plasma insulin level, plasma insulin/plasma glucose value, and the pancreatic insulin content were measured in the same manner as in Experimental Example 1.
The results are shown in [Table 5] to [Table 8]. The values in the tables show mean (n=8)±standard deviation.

[3] = system: db/db mouse; assay: Experimental Example 3: db/db mouse, powder diet for 4 weeks, pioglitazone and sitagliptin alone or combined; details: db/db mice, in powder diet 4 weeks, mean (n=8)±standard deviation; for plasma insulin level / plasma glucose level / plasma insulin/plasma glucose value: day 28; for plasma insulin level / pancreatic insulin content: pioglitazone 0.01(w/w)%, sitagliptin 0.03(w/w)%; for plasma glucose level: pioglitazone hydrochloride 0.01(w/w)% as pioglitazone, sitagliptin hydrochloride 0.03(w/w)% as sitagliptin; for plasma insulin/plasma glucose value: plasma insulin level divided by plasma glucose level; for pancreatic insulin content: pancreas removed day 29
Source text: First of all, db/db mice (32 mice) were divided into 4 groups of […] mice in each group), and a powder diet (trade name: CE-2, Clea Japan, Inc., hereinafter the same) was given to group K (control group), a powder diet containing pioglitazone hydrochloride (0.01(w/w) % as pioglitazone) was given to group L, a powder diet containing sitagliptin hydrochloride (0.03(w/w) % as sitagliptin) was given to group M, and a powder diet containing pioglitazone hydrochloride (0.01(w/w) % as pioglitazone) and sitagliptin hydrochloride (0.03(w/w) % as sitagliptin) was given to group N, for 4 consecutive weeks. In addition, a powder diet was given to db/+m mice for 4 consecutive weeks, and the mice were used as group 0 (normal group). In the above-mentioned groups K to N, blood samples were collected from mice on day 28 from the start of the powder diet administration, and plasma glucose level and plasma insulin level were measured. […] The results are shown in [Table 9] to [Table 12]. The values in the tables show mean (n=8)±standard deviation.

[4] = pioglitazone 0.01(w/w)%, vildagliptin 0.03(w/w)%

| SMILES | plasma insulin level [1] [μU/mL] | plasma glucose level [1] [mg/dL] | plasma insulin/plasma glucose value [1] [μU/mg] | pancreatic insulin content [1] [μU/mg tissue] | plasma insulin level ([2]; day 35, pioglitazone 0.01(w/w)%, vildagliptin 0.03(w/w)%) [μU/mL] | plasma glucose level ([2]; day 35, pioglitazone hydrochloride 0.01(w/w)% as pioglitazone, vildagliptin 0.03(w/w)%) [mg/dL] | plasma insulin/plasma glucose value ([2]; day 35, plasma insulin level divided by plasma glucose level) [μU/mg] | pancreatic insulin content [2, 4] [μU/mg tissue] | plasma insulin level [3] [μU/mL] | plasma glucose level [3] [mg/dL] | plasma insulin/plasma glucose value [3] [μU/mg] | pancreatic insulin content [3] [μU/mg tissue] |
| --- | --- | --- | --- | --- | --- | --- | --- | --- | --- | --- | --- | --- |
| Cc1ccc(-c2c(CN)c(CC(C)C)nc(C)c2C(=O)O)cc1 [compound A, 5-(aminomethyl)-6-isobutyl-2-methyl-4-(4-methylphenyl)nicotinic acid] | 135.5 ± 115.4 | 502.0 ± 54.3 | 29.0 ± 28.4 | 918.4 ± 328.6 |  |  |  |  |  |  |  |  |
| CCc1ccc(CCOc2ccc(CC3SC(=O)NC3=O)cc2)nc1 (stereo not drawn) [pioglitazone] | 289.2 ± 261.8 | 411.0 ± 54.4 | 72.9 ± 64.5 | 2314.2 ± 1285.4 | 200.2 ± 78.0 | 348.5 ± 97.4 | 63.9 ± 35.9 | 834.7 ± 275.3 | 739.5 ± 472.8 | 341.0 ± 100.6 | 261.7 ± 217.9 | 1117.2 ± 479.7 |
| N[C@@H](CC(=O)N1CCn2c(nnc2C(F)(F)F)C1)Cc1cc(F)c(F)cc1F [sitagliptin] |  |  |  |  |  |  |  |  | 103.1 ± 47.2 | 492.3 ± 38.3 | 21.6 ± 11.3 | 331.1 ± 79.6 |
| N#C[C@@H]1CCCN1C(=O)CNC12CC3CC(CC(O)(C3)C1)C2 [vildagliptin, (2S)-1-{[(3-hydroxy-1-adamantyl)amino]acetyl}-2-cyano-pyrrolidine] |  |  |  |  |  |  |  | 559.2 ± 169.2 |  |  |  |  |
